{
  "source": "patent US12310973B2",
  "about": "“Administration and dosage of diaminophenothiazines” (WisTa Laboratories Ltd., priority 2016, dated 2025)",
  "key": {"Mild AD patients": {"system": "Mild AD patients", "assay": "Further 18-month Phase 3 trial in mild AD", "format": "in vivo, human", "protocol": "To examine the potential efficacy of LMTM as monotherapy in non-randomised observational cohort analyses as modified primary outcomes in an 18-months Phase 3 trial in mild AD.\nMild AD patients (n=800) were randomly assigned to 100 mg twice a day or 4 mg twice a day.\nThe Statistical Analysis Plan was revised in light of Example 3 (which completed earlier) prior to database lock and unblinding, to compare the 100 mg twice a day as monotherapy subgroup (n=79) versus 4 mg twice a day as randomised (n=396), and 4 mg twice a day as monotherapy (n=76) versus 4 mg twice a day as add-on therapy (n=297), with strong control of family-wise type I error.\nWe therefore modified the primary analyses and treatment comparisons in the study described in this Example (prior to database lock and unblinding) to investigate whether the monotherapy differences could be confirmed as observational cohort comparisons defined as primary outcomes with strong control of family-wise type I error in the second independent study. The monotherapy cohort comparisons which were of particular interest in light of the earlier study were: (A) 100 mg twice a day a monotherapy compared with the controls as originally randomised, and (B) 4 mg twice a day as monotherapy compared with the same dose as add-on to standard AD treatments."}, "[1]": {"system": "mild to moderate AD patients", "assay": "Phase 3 trial in mild to moderate AD: ADAS-cog change from baseline", "format": "in vivo, human", "source_text": "The co-primary efficacy outcomes were change from baseline in 11-item Alzheimer's Disease Assessment Scale—cognitive subscale (ADAS-cog) and the 23-item Alzheimer's Disease Cooperative Study Activities of Daily Living (ADCS-ADL). Magnetic resonance imaging (MRI) volumetry was chosen as the principal secondary outcome to support a potential effect on the rate of brain atrophy (Fox et al., 1997; Ridha et al., 2008). Change in Lateral Ventricular Volume (LVV), as measured by the Ventricular Boundary Shift Integral (VBSI), (Salloway et al., 2014) was chosen as the principal measure as it provides high-contrast boundaries for measurement and is less affected by motion artefacts than whole brain or smaller structures. Key supportive topographical measures (temporo-parietal (TPV) and hippocampal volume (HV)) are also reported.\nPatients were recruited at 115 sites across 16 countries between January 2013 and August 2014. Enrolment of approximately 833 patients was targeted, with 891 patients actually recruited, in order to obtain data on approximately 500 patients completing the study, assuming a 30-40% drop-out rate. […] Adult caregiver(s) were required to participate. Concomitant use of AChEIs and/or memantine was permitted, provided the patient had been taking the medication(s) for […], with no changes to the dosage for 26 weeks prior to screening. Concomitant use of serotonergic antidepressant medication was permitted, but patients were monitored closely using a targeted rating scale derived from 4 published diagnostic criteria (Alusik et al., 2014) due to a theoretical potential for serotonin syndrome (Ramsay et al., 2007). […] Because MT^+ in high doses can induce methaemoglobinaemia, subjects with glucose-6-phosphate dehydrogenase deficiency or who were otherwise at haematological risk were excluded. Other inclusion/exclusion criteria are provided in the Supplementary Materials.\nPatients were randomised at baseline to LMTM 75 mg b.i.d. or 125 mg b.i.d. (expressed as MT base equivalent) or control in a 3:3:4 ratio. The randomisation was stratified according to geographical region (3 levels: North America, Europe, rest of world), use of AD-labelled co-medications (2 levels, using or not using) and severity (2 levels, moderate MMSE 14-19 inclusive, mild MMSE 20-26 inclusive). Patients in the control arm received a dose of 4 mg b.i.d. to maintain blinding.\nADAS-cog and ADCS-ADL assessments were performed at baseline and every 13 weeks thereafter, with change at 65 weeks (the final on-treatment visit) the primary efficacy measures. These were repeated at the final off-treatment follow-up visit at Week 69. Secondary efficacy measures included Clinical Global Impression of Change (ADCS-CGIC, administered by an independent rater); MMSE, administered on screening and at Weeks 26, 52, 65 and 69. Brain MRI scans were performed at baseline/screening and every 13 weeks using a standardized protocol including volumetric 3D T1-weighted data consistent with ADNI recommendations, FLAIR, T2* Gradient Echo and T2-weighted sequences. Diffusion-Weighted Imaging was also available at screening in order to exclude patients with co-existing pathology that would lead to a diagnosis other than probable AD. Each site was first qualified ensuring standardised acquisition protocol, patient handling and data management. MRI data were centrally collected by Imaging Corelab (Bioclinica). Data were centrally reviewed by RadMD for eligibility and safety (Amyloid Related Imaging Abnormalities, or ARIA monitoring) on an on-going basis. Volumetric 3DT1 data were also reviewed centrally in order to measure (using a boundary shift integral (BSI) technique; Salloway et al., 2014) change in LVV as principal secondary outcome measure, and as exploratory endpoints temporo-parietal volume (TPV), whole brain volume (WBV) and hippocampal volume (HV, estimated as the mean of left and right) (Wischik et al., 2016). […]"}},
  "data": [
    {"molecule": "CN(C)c1ccc2c(c1)Sc1cc(N(C)C)ccc1N2", "note": "[LMTM, leuco-methythioninium bis(hydromethanesulfonate)]", "values": [
      {"measurement": "Withdrawal rate over 18 months", "setting": "Mild AD patients; 4 mg twice a day", "value": 25, "unit": "%"},
      {"measurement": "Withdrawal rate over 18 months", "setting": "Mild AD patients; 100 mg twice a day", "value": 46, "unit": "%"},
      {"measurement": "Revised analyses on ADAS-cog, ADCS-ADL, MRI atrophy and glucose uptake", "setting": "Mild AD patients; 100 mg twice a day monotherapy vs 4 mg twice a day as randomised, 4 mg twice a day monotherapy vs add-on, 18 months", "value": "statistically significant at the required threshold of p<0.025"},
      {"measurement": "Annualised rate of whole brain atrophy", "setting": "Mild AD patients; after LMTM as monotherapy for 9 months, within-cohort comparison", "value": "the rate was reduced to that reported for normal elderly controls"},
      {"measurement": "ADAS-cog treatment effect as % of the decline over 65 weeks seen in the control arm (mean±SE)", "setting": "[1]; 75 mg b.i.d. monotherapy, 65 weeks", "value": "103%±23%"},
      {"measurement": "ADAS-cog treatment effect as % of the decline over 65 weeks seen in the control arm (mean±SE)", "setting": "[1]; 125 mg b.i.d. monotherapy, 65 weeks", "value": "83%±23%"},
      {"measurement": "ADAS-cog, Estimate (change from baseline)", "setting": "[1]; Table 2 primary analysis, 65 weeks, covariates additive, control arm (LMTM 4 mg b.i.d.)", "value": 6.32, "unit": "ADAS-cog units"},
      {"measurement": "ADAS-cog, Estimate (difference with respect to control)", "setting": "[1]; Table 2 primary analysis, 65 weeks, 75 mg b.i.d.", "value": "−0.02", "unit": "ADAS-cog units"},
      {"measurement": "ADAS-cog, Estimate (difference with respect to control)", "setting": "[1]; Table 2 primary analysis, 65 weeks, 125 mg b.i.d.", "value": "−0.43", "unit": "ADAS-cog units"},
      {"measurement": "ADAS-cog, Estimate (mean additive treatment benefit)", "setting": "[1]; Table 2 primary analysis, 65 weeks, patients not using AChEI/Mem (additive covariate)", "value": "−2.30", "unit": "ADAS-cog units"},
      {"measurement": "ADAS-cog, Estimate (difference vs control)", "setting": "[1]; Table 3, AChEI/Mem as interaction term, 65 weeks, 75 mg b.i.d. + AChEI/Mem", "value": 1.02, "unit": "ADAS-cog units"},
      {"measurement": "ADAS-cog, Estimate (difference vs control)", "setting": "[1]; Table 3, AChEI/Mem as interaction term, 65 weeks, 75 mg b.i.d. monotherapy", "value": "−6.25", "unit": "ADAS-cog units"},
      {"measurement": "ADAS-cog, Estimate (difference vs control)", "setting": "[1]; Table 3, AChEI/Mem as interaction term, 65 weeks, 125 mg b.i.d. + AChEI/Mem", "value": 0.50, "unit": "ADAS-cog units"},
      {"measurement": "ADAS-cog, Estimate (difference vs control)", "setting": "[1]; Table 3, AChEI/Mem as interaction term, 65 weeks, 125 mg b.i.d. monotherapy", "value": "−5.79", "unit": "ADAS-cog units"},
      {"measurement": "ADAS-cog, Estimate (change from baseline)", "setting": "[1]; Table 3, AChEI/Mem as interaction term, 65 weeks, control arm (4 mg b.i.d.)", "value": 5.98, "unit": "ADAS-cog units"},
      {"measurement": "ADAS-cog, Estimate (change from baseline)", "setting": "[1]; Table 4 post-hoc, control-arm subjects, 4 mg b.i.d. + AChEI/Mem", "value": 6.79, "unit": "ADAS-cog units"},
      {"measurement": "ADAS-cog, Estimate (difference)", "setting": "[1]; Table 4 post-hoc, control-arm subjects, 4 mg b.i.d. monotherapy vs 4 mg b.i.d. + AChEI/Mem", "value": "−5.90", "unit": "ADAS-cog units"},
      {"measurement": "ADAS-cog, Estimate (change from baseline)", "setting": "[1]; Table 7, mild AD, 4 mg b.i.d. + AChEI/Mem (control-arm subjects)", "value": 3.24, "unit": "ADAS-cog units"},
      {"measurement": "ADAS-cog, Estimate (difference)", "setting": "[1]; Table 7, mild AD, 4 mg b.i.d. alone vs 4 mg b.i.d. + AChEI/Mem", "value": "−6.41", "unit": "ADAS-cog units"},
      {"measurement": "ADAS-cog, Estimate (difference)", "setting": "[1]; Table 7, mild AD, 75 mg b.i.d. alone vs control arm as randomised", "value": "−8.89", "unit": "ADAS-cog units"},
      {"measurement": "ADAS-cog, Estimate (difference)", "setting": "[1]; Table 7, mild AD, 125 mg b.i.d. alone vs control arm as randomised", "value": "−5.03", "unit": "ADAS-cog units"},
      {"measurement": "ADAS-cog, Estimate (change from baseline)", "setting": "[1]; Table 7, mild AD, control arm as randomised (4 mg b.i.d.)", "value": 2.27, "unit": "ADAS-cog units"},
      {"measurement": "ADAS-cog, Estimate (change from baseline)", "setting": "[1]; Table 7, moderate AD, 4 mg b.i.d. + AChEI/Mem (control-arm subjects)", "value": 8.49, "unit": "ADAS-cog units"},
      {"measurement": "ADAS-cog, Estimate (difference)", "setting": "[1]; Table 7, moderate AD, 4 mg b.i.d. alone vs 4 mg b.i.d. + AChEI/Mem", "value": "−4.74", "unit": "ADAS-cog units"},
      {"measurement": "ADAS-cog, Estimate (difference)", "setting": "[1]; Table 7, moderate AD, 75 mg b.i.d. alone vs control arm as randomised", "value": "−2.01", "unit": "ADAS-cog units"},
      {"measurement": "ADAS-cog, Estimate (difference)", "setting": "[1]; Table 7, moderate AD, 125 mg b.i.d. alone vs control arm as randomised", "value": "−5.75", "unit": "ADAS-cog units"},
      {"measurement": "ADAS-cog, Estimate (change from baseline)", "setting": "[1]; Table 7, moderate AD, control arm as randomised (4 mg b.i.d.)", "value": 7.89, "unit": "ADAS-cog units"},
      {"measurement": "ADAS-cog decline at 12 months (mean±se)", "setting": "[1]; control arm (LMTM 4 mg b.i.d.), 12 months", "value": "3.85±0.47"},
      {"measurement": "Mean treatment benefit relative to control on ADAS-cog", "setting": "[1]; mild patients, LMTM monotherapy", "value": "240%±41%"}
    ]}
  ]
}
